The subject of the assay is L1210 leukemia ip in BDF1 mice, survival T/C. Nature of the assay: NCI In Vivo Anticancer Drug Screen. Data for tumor model L1210 Leukemia (intraperitoneal) in B6D2F1 (BDF1) mice. The conditions noted are these: higher = longer survival. Put shortly: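 Each compound was tested against a transplantable tumor grown in mice. The endpoint was survival, with treated animals benchmarked against vehicle controls as a simple ratio.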

The mark [1] stands for this setting: endpoint: mean survival time, dose: 100.0 mg/kg/injection, schedule: Q04DX002 (ip), vehicle: saline with Tween-80.
[2] abbreviates: endpoint: mean survival time, dose: 200.0 mg/kg/injection, schedule: Q04DX002 (ip), vehicle: saline with Tween-80.
Where [3] appears, read: endpoint: mean survival time, dose: 400.0 mg/kg/injection, schedule: Q04DX002 (ip), vehicle: saline with Tween-80.
[4] abbreviates: endpoint: mean survival time, dose: 50.0 mg/kg/injection, schedule: Q01DX009 (ip), vehicle: saline with Tween-80.
Where [5] appears, read: endpoint: mean survival time, dose: 100.0 mg/kg/injection, schedule: Q01DX009 (ip), vehicle: saline with Tween-80.
[6] abbreviates: endpoint: mean survival time, dose: 100.0 mg/kg/injection, schedule: Q01DX001 (ip), vehicle: saline.
The mark [7] stands for this setting: endpoint: mean survival time, dose: 200.0 mg/kg/injection, schedule: Q01DX001 (ip), vehicle: saline.
[8] abbreviates: endpoint: mean survival time, dose: 400.0 mg/kg/injection, schedule: Q01DX001 (ip), vehicle: saline.
Setting [9] is: endpoint: mean survival time, dose: 100.0 mg/kg/injection, schedule: Q01DX009 (ip), vehicle: Klucel (hydroxypropylcellulose) (HPC).
Setting [10] is: endpoint: mean survival time, dose: 100.0 mg/kg/injection, schedule: Q04DX002 (ip), vehicle: Klucel (hydroxypropylcellulose) (HPC).
The mark [11] stands for this setting: endpoint: mean survival time, dose: 200.0 mg/kg/injection, schedule: Q04DX002 (ip), vehicle: Klucel (hydroxypropylcellulose) (HPC).
Setting [12] is: endpoint: mean survival time, dose: 400.0 mg/kg/injection, schedule: Q01DX009 (ip), vehicle: Klucel (hydroxypropylcellulose) (HPC).
[13] abbreviates: endpoint: mean survival time, dose: 400.0 mg/kg/injection, schedule: Q04DX002 (ip), vehicle: Klucel (hydroxypropylcellulose) (HPC).
Setting [14] is: endpoint: mean survival time, dose: 100.0 mg/kg/injection, schedule: Q04DX003 (ip), vehicle: Klucel (hydroxypropylcellulose) (HPC).
[15] abbreviates: endpoint: mean survival time, dose: 200.0 mg/kg/injection, schedule: Q04DX003 (ip), vehicle: Klucel (hydroxypropylcellulose) (HPC).

Several values for one entry are separate records, joined by “and”; a condition that tells them apart may be missing. Equal values may be shown once. Inconclusive results and toxic doses are left out.

On to `CC(C)=CCC/C(C)=C\COc1cccc(C)c1`, for which the T/C is 100 % of control under setting [1], 96 % of control under setting [2] and 96 % of control under setting [3].

Take `CC(C)=CCC/C(C)=C/CNc1ncnc2nc[nH]c12`: the T/C was 103 % of control under setting [4]; 100 % of control under setting [5]; 94 % of control (endpoint: mean survival time, dose: 100.0 mg/kg/injection, schedule: Q04DX003 (ip), vehicle: acetone); 94 % of control (endpoint: mean survival time, dose: 100.0 mg/kg/injection, schedule: Q04DX003 (ip), vehicle: saline with Tween-80); 100 % of control (endpoint: mean survival time, dose: 200.0 mg/kg/injection, schedule: Q01DX009 (ip), vehicle: saline with Tween-80); 101 % of control (endpoint: mean survival time, dose: 200.0 mg/kg/injection, schedule: Q04DX003 (ip), vehicle: acetone). Further, the T/C was 95 % of control (endpoint: mean survival time, dose: 200.0 mg/kg/injection, schedule: Q04DX003 (ip), vehicle: saline with Tween-80); 105 % of control (endpoint: mean survival time, dose: 400.0 mg/kg/injection, schedule: Q01DX009 (ip), vehicle: saline with Tween-80); 90 % of control (endpoint: mean survival time, dose: 400.0 mg/kg/injection, schedule: Q04DX003 (ip), vehicle: saline with Tween-80).

Take `COc1cc(N)c2ncccc2c1Cl`: the T/C by setting is: under setting [6], 104 % of control; under setting [7], 104 % of control; under setting [8], 101 % of control.

On to `CSCS(=O)C[C@H](CO)NC(=O)/C=C/c1c(C)[nH]c(=O)[nH]c1=O` (stereo not given in full), for which the T/C is 105 % of control (endpoint: mean survival time, dose: 0.38 mg/kg/injection, schedule: Q01DX001 (ip), vehicle: saline); 96 % of control (endpoint: mean survival time, dose: 0.39 mg/kg/injection, schedule: Q04DX002 (ip), vehicle: Klucel (hydroxypropylcellulose) (HPC)); 103 % of control (endpoint: mean survival time, dose: 0.75 mg/kg/injection, schedule: Q01DX001 (ip), vehicle: saline); 86 % of control (endpoint: mean survival time, dose: 0.75 mg/kg/injection, schedule: Q01DX Z (ip), vehicle: carboxymethylcellulose (CMC)); 96 % of control (endpoint: mean survival time, dose: 0.78 mg/kg/injection, schedule: Q04DX002 (ip), vehicle: Klucel (hydroxypropylcellulose) (HPC)); 106 % of control (endpoint: mean survival time, dose: 1.1 mg/kg/injection, schedule: Q01DX001 (ip), vehicle: carboxymethylcellulose (CMC)). Further, the T/C by setting is: (endpoint: mean survival time, dose: 1.5 mg/kg/injection, schedule: Q01DX001 (ip), vehicle: saline) 116 % of control; (endpoint: mean survival time, dose: 1.56 mg/kg/injection, schedule: Q04DX002 (ip), vehicle: Klucel (hydroxypropylcellulose) (HPC)) 110 % of control; (endpoint: mean survival time, dose: 1.7 mg/kg/injection, schedule: Q01DX001 (ip), vehicle: carboxymethylcellulose (CMC)) 112 % of control; (endpoint: mean survival time, dose: 2.6 mg/kg/injection, schedule: Q01DX001 (ip), vehicle: carboxymethylcellulose (CMC)) 112 % of control; (endpoint: mean survival time, dose: 3.0 mg/kg/injection, schedule: Q01DX001 (ip), vehicle: saline) 111 % of control; (endpoint: mean survival time, dose: 3.13 mg/kg/injection, schedule: Q04DX002 (ip), vehicle: Klucel (hydroxypropylcellulose) (HPC)) 104 % of control. Further, the T/C (endpoint: median survival time, dose: 4.0 mg/kg/injection, schedule: Q04DX003 (ip), vehicle: saline) is 121 % of control.

Consider `CC(=O)C1(O)CCCCC1`, for which the T/C was 104 % of control (endpoint: mean survival time, dose: 100.0 mg/kg/injection, schedule: Q01DX009 (ip), vehicle: saline); 92 % of control (endpoint: mean survival time, dose: 100.0 mg/kg/injection, schedule: Q04DX003 (ip), vehicle: saline); 98 % of control (endpoint: mean survival time, dose: 200.0 mg/kg/injection, schedule: Q01DX009 (ip), vehicle: saline); 98 % of control (endpoint: mean survival time, dose: 200.0 mg/kg/injection, schedule: Q04DX003 (ip), vehicle: saline); 109 % of control (endpoint: mean survival time, dose: 400.0 mg/kg/injection, schedule: Q01DX009 (ip), vehicle: saline); 94 % of control (endpoint: mean survival time, dose: 400.0 mg/kg/injection, schedule: Q04DX003 (ip), vehicle: saline).

`Cc1ccc2c(c1[N+](=O)[O-])C(=O)c1ccccc1C2=O`: the T/C reads like this: (endpoint: mean survival time, dose: 50.0 mg/kg/injection, schedule: Q01DX001 (ip), vehicle: saline) 96 % of control; under setting [6], 90 % of control; under setting [9], 100 % of control; under setting [10], 104 % of control; under setting [7], 90 % of control; under setting [11], 110 % of control. For the same molecule, the T/C reads like this: under setting [8], 90 % of control; under setting [12], 111 % of control; under setting [13], 96 % of control.

Take `COC(=O)c1[nH]cnc1N1CC[N+](CCCl)=N1`: the T/C is, setting by setting: (endpoint: mean survival time, dose: 37.5 mg/kg/injection, schedule: Q01DX009 (ip), vehicle: saline) 116 % of control; (endpoint: mean survival time, dose: 37.5 mg/kg/injection, schedule: Q04DX003 (ip), vehicle: saline) 100 % of control; (endpoint: mean survival time, dose: 75.0 mg/kg/injection, schedule: Q01DX001 (ip), vehicle: saline) 98 % of control; (endpoint: mean survival time, dose: 75.0 mg/kg/injection, schedule: Q01DX009 (ip), vehicle: saline) 95 % of control; (endpoint: mean survival time, dose: 75.0 mg/kg/injection, schedule: Q04DX003 (ip), vehicle: saline) 107 % of control; (endpoint: mean survival time, dose: 150.0 mg/kg/injection, schedule: Q01DX001 (ip), vehicle: saline) 100 % of control. Also, the T/C reads like this: (endpoint: mean survival time, dose: 150.0 mg/kg/injection, schedule: Q01DX009 (ip), vehicle: saline) 103 % of control; (endpoint: mean survival time, dose: 150.0 mg/kg/injection, schedule: Q04DX003 (ip), vehicle: saline) 102 % of control.

As to `CCOC(=O)C1C(=O)NC(C(=O)OCC)(C(=O)OCC)C1C(C)C` (stereo not given), the T/C (endpoint: mean survival time, dose: 50.0 mg/kg/injection, schedule: Q04DX003 (ip), vehicle: Klucel (hydroxypropylcellulose) (HPC)) was 96 % of control; the T/C under setting [14] is 100 % of control; the T/C under setting [15] is 96 % of control.

On to `N#Cc1c(NN)n(C2OC(CO)C(O)C2O)c2ncncc12` (stereo not given), for which the T/C (endpoint: mean survival time, dose: 100.0 mg/kg/injection, schedule: Q01DX005 (ip), vehicle: saline) is 106 % of control and the T/C (endpoint: mean survival time, dose: 200.0 mg/kg/injection, schedule: Q01DX005 (ip), vehicle: saline) is 106 % of control.

As to `COC(=O)C1(C)COP(=O)(O)OC1` (stereo not given), the T/C is 91 % of control and 103 % of control under setting [6]; 89 % of control and 100 % of control under setting [7]; 97 % of control under setting [8].

As for `O=NN(CCCl)C(=O)NC(C(=O)O)C1CCCCC1` (stereo not given), the T/C runs as follows: (endpoint: mean survival time, dose: 8.0 mg/kg/injection, schedule: Q01DX001 (ip), vehicle: saline with Tween-80) 118 % of control; (endpoint: mean survival time, dose: 12.0 mg/kg/injection, schedule: Q01DX001 (ip), vehicle: saline with Tween-80) 171 % of control; (endpoint: mean survival time, dose: 26.0 mg/kg/injection, schedule: Q01DX001 (ip), vehicle: saline with Tween-80) 153 % of control; (endpoint: mean survival time, dose: 40.0 mg/kg/injection, schedule: Q01DX001 (ip), vehicle: saline with Tween-80) 253 % of control; (endpoint: mean survival time, dose: 60.0 mg/kg/injection, schedule: Q01DX001 (ip), vehicle: saline with Tween-80) 412 % of control; (endpoint: mean survival time, dose: 90.0 mg/kg/injection, schedule: Q01DX001 (ip), vehicle: saline with Tween-80) 482 % of control. Moreover, the T/C (endpoint: mean survival time, dose: 133.0 mg/kg/injection, schedule: Q01DX001 (ip), vehicle: saline with Tween-80) was 266 % of control.

As to `CCC1C2CC3C4N(C)c5ccccc5C45CC(C2C5O)N3C1O` (stereo not given), the T/C under setting [4] is 100 % of control and the T/C under setting [5] was 103 % of control.

As for `O=[N+]([O-])c1ccc2c(c1)OCCOCCOCCOCCO2`, the T/C is 95 % of control under setting [10]; 93 % of control under setting [1]; 103 % of control under setting [11]; 104 % of control under setting [2]; 87 % of control under setting [3].

In the case of `Cc1ncc(C#N)n1Cc1ccccc1`, the T/C is, setting by setting: under setting [9], 98 % of control and 101 % of control; under setting [10], 101 % of control and 113 % of control; under setting [14], 109 % of control; (endpoint: mean survival time, dose: 200.0 mg/kg/injection, schedule: Q01DX009 (ip), vehicle: Klucel (hydroxypropylcellulose) (HPC)) 101 % of control and 103 % of control; under setting [11], 103 % of control and 108 % of control; under setting [15], 104 % of control. The T/C was 101 % of control under setting [12]; 103 % of control and 109 % of control under setting [13]; 111 % of control (endpoint: mean survival time, dose: 400.0 mg/kg/injection, schedule: Q04DX003 (ip), vehicle: Klucel (hydroxypropylcellulose) (HPC)).

Consider `O=C1OCCN1NCc1ccc([N+](=O)[O-])o1`, for which the T/C by setting is: under setting [6], 92 % of control; under setting [7], 103 % of control; under setting [8], 101 % of control.
